Laboratory results published in patent US20260248787A9, “MEDICAMENT FOR TREATING CANCER COMPRISING OPTICALLY ACTIVE AZABICYCLO RING DERIVATIVE” (Sumitomo Pharma Co., Ltd., priority 2023, published 2026).

Assay: Phase 1/2 first-in-human clinical study, safety evaluation (DLT, TEAE, SAE)
Conditions: for SAE Differentiation syndrome, CTCAE Grade: Related
[1] = cut-off, 40-300 mg BID, unrelated to study drug
[2] = patient US053A-0001, 80 mg BID Arm A, Not related, Recovered/Resolved
[3] = patient US154A-0002, 40 mg BID Arm B, Not related, Not recovered/Not resolved
[4] = patient US154A-0004, 100 mg BID Arm A, Not related, Recovered/Resolved
[5] = patient US185A-0001, 100 mg BID Arm A, Not related, Not recovered/Not resolved
[6] = patient US185A-0006, 120 mg BID Arm A, Not related, Fatal

C=C1C[C@@H]2CC[C@H]1[C@@H](C(=O)N1CCC3(CC1)CN(c1ncncc1Oc1ccc(F)cc1C(=O)N(C(C)C)C(C)C)C3)N2 [the present compound, 5-fluoro-2-[(4-{7-[(1S,3S,4R)-5-methylidene-2-azabicyclo[2.2.2]octane-3-carbonyl]-2,7-diazaspiro[3.5]nonan-2-yl}pyrimidin-5-yl)oxy]-N,N-di(propan-2-yl)benzamide]
Non-hematological TEAE regardless of causality: COVID-19 (N=57, Grade ≥3): 3 (5.3%) n (%) | Non-hematological TEAE regardless of causality: Constipation (N=57, Grade ≥3): 1 (1.8%) n (%) | Non-hematological TEAE regardless of causality: Cough (N=57, Grade ≥3): 0 (0.0%) n (%) | Non-hematological TEAE regardless of causality: Decreased appetite (N=57, Grade ≥3): 2 (3.5%) n (%) | Non-hematological TEAE regardless of causality: Diarrhoea (N=57, Grade ≥3): 0 (0.0%) n (%) | Non-hematological TEAE regardless of causality: Dizziness (N=57, Grade ≥3): 0 (0.0%) n (%) | Non-hematological TEAE regardless of causality: Dysgeusia (N=57, Grade ≥3): 0 (0.0%) n (%) | Non-hematological TEAE regardless of causality: Dyspnoea (N=57, Grade ≥3): 3 (5.3%) n (%) | Non-hematological TEAE regardless of causality: Electrocardiogram QT prolonged (N=57, Grade ≥3): 2 (3.5%) n (%) | Non-hematological TEAE regardless of causality: Epistaxis (N=57, Grade ≥3): 1 (1.8%) n (%) | Non-hematological TEAE regardless of causality: Fatigue (N=57, Grade ≥3): 1 (1.8%) n (%) | Non-hematological TEAE regardless of causality: Haemorrhage intracranial (N=57, Grade ≥3): 4 (7.0%) n (%) | Non-hematological TEAE regardless of causality: Headache (N=57, Grade ≥3): 0 (0.0%) n (%) | Non-hematological TEAE regardless of causality: Hypertension (N=57, Grade ≥3): 3 (5.3%) n (%) | Non-hematological TEAE regardless of causality: Hypotension (N=57, Grade ≥3): 2 (3.5%) n (%) | Non-hematological TEAE regardless of causality: Muscular weakness (N=57, Grade ≥3): 2 (3.5%) n (%) | Non-hematological TEAE regardless of causality: Myalgia (N=57, Grade ≥3): 0 (0.0%) n (%) | Non-hematological TEAE regardless of causality: Nausea (N=57, Grade ≥3): 4 (7.0%) n (%) | Non-hematological TEAE regardless of causality: Oedema peripheral (N=57, Grade ≥3): 0 (0.0%) n (%) | Non-hematological TEAE regardless of causality: Pain in extremity (N=57, Grade ≥3): 1 (1.8%) n (%) | Non-hematological TEAE regardless of causality: Pneumonia (N=57, Grade ≥3): 10 (17.5%) n (%) | Non-hematological TEAE regardless of causality: Pyrexia (N=57, Grade ≥3): 0 (0.0%) n (%) | Non-hematological TEAE regardless of causality: Sepsis (N=57, Grade ≥3): 10 (17.5%) n (%) | Non-hematological TEAE regardless of causality: Stomatitis (N=57, Grade ≥3): 0 (0.0%) n (%) | Non-hematological TEAE regardless of causality: Vomiting (N=57, Grade ≥3): 3 (5.3%) n (%) | Non-hematological laboratory change regardless of causality: ALT increase (N=57, Grade ≥3): 0 (0.0%) n (%) | Non-hematological laboratory change regardless of causality: AST increase (N=57, Grade ≥3): 1 (1.8%) n (%) | Non-hematological laboratory change regardless of causality: Hypertriglyceridemia (N=57, Grade ≥3): 4 (7.0%) n (%) | Non-hematological laboratory change regardless of causality: Hypocalcemia (N=57, Grade ≥3): 2 (3.5%) n (%) | Non-hematological laboratory change regardless of causality: Hypokalemia (N=57, Grade ≥3): 10 (17.2%) n (%) | Non-hematological laboratory change regardless of causality: Hypomagnesemia (N=57, Grade ≥3): 1 (1.8%) n (%) | Non-hematological laboratory change regardless of causality: Hyponatremia (N=57, Grade ≥3): 0 (0.0%) n (%) | Non-hematological laboratory change regardless of causality: Hypophosphatemia (N=57, Grade ≥3): 11 (19.3%) n (%) | Treatment related adverse event: Nausea (N=57, Grade ≥3): 1 (1.8%) n (%) | Treatment related adverse event: Vomiting (N=57, Grade ≥3): 1 (1.8%) n (%) | TEAE in ≥20% of patients regardless of causality: Fatigue (Total N=43, 40-200 mg BID): 10 (23.3%) n (%) | TEAE in ≥20% of patients regardless of causality: Hypokalaemia (Total N=43, 40-200 mg BID): 9 (20.9%) n (%) | TEAE in ≥20% of patients regardless of causality: Nausea (Total N=43, 40-200 mg BID): 15 (34.9%) n (%) | TEAE in ≥20% of patients regardless of causality: Vomiting (Total N=43, 40-200 mg BID): 10 (23.3%) n (%) | TEAE related to the present compound in ≥2 patients: Decreased appetite (Total N=43, 40-200 mg BID): 3 (7.0%) n (%) | TEAE related to the present compound in ≥2 patients: Nausea (Total N=43, 40-200 mg BID): 3 (7.0%) n (%) | TEAE related to the present compound in ≥2 patients: Vomiting (Total N=43, 40-200 mg BID): 4 (9.3%) n (%) | Possible differentiation syndrome (DS) (cut-off, 40-300 mg BID): 3 pts | TEAE assessed as related: nausea (cut-off, 40-300 mg BID): 12.1% | TEAE assessed as related: vomiting (cut-off, 40-300 mg BID): 15.5% | mortality from DS (cut-off, 40-300 mg BID): no mortality | Grade >3 TEAE: anemia [1]: 13.8% | Grade >3 TEAE: febrile neutropenia [1]: 15.5% | Grade >3 TEAE: platelet count decrease [1]: 12.1% | Grade >3 TEAE: pneumonia [1]: 17.2% | Grade >3 TEAE: sepsis [1]: 15.5% | DLT (cut-off, any dose level of 40-300 mg BID): No DLT | patients with related asymptomatic Grade 3 QT prolongation (cut-off, in the presence of other QT prolonging drugs): One | DLT (n=81, 40 mg BID to 300 mg BID): no DLT | Grade 3 nausea and vomiting (n=81, 40-300 mg BID): 1 patient | TEAE assessed as related: nausea (n=81, 40-300 mg BID): 12.3% | TEAE assessed as related: vomiting (n=81, 40-300 mg BID): 14.8% | TEAE regardless of relationship: decreased appetite (n=81, 40-300 mg BID): 21.0% | TEAE regardless of relationship: diarrhea (n=81, 40-300 mg BID): 21.0% | TEAE regardless of relationship: febrile neutropenia (n=81, 40-300 mg BID): 22.2% | TEAE regardless of relationship: hypokalemia (n=81, 40-300 mg BID): 21.0% | TEAE regardless of relationship: nausea (n=81, 40-300 mg BID): 37.0% | TEAE regardless of relationship: vomiting (n=81, 40-300 mg BID): 29.6% | grade ≥3 QTc prolongation related to the compound (n=81, 40-300 mg BID): no reports | SAE Sepsis, CTCAE Grade (patient JP002A-0001, 40 mg BID Arm A, Not related, Not recovered/Not resolved): 3 | SAE Malignant neoplasm progression, CTCAE Grade (patient JP002A-0003, 60 mg BID Arm B, Not related, Fatal): 5 | SAE Disease progression, CTCAE Grade (patient JP007A-0002, 60 mg BID Arm B, Not related, Not recovered/Not resolved): 3 | SAE Sepsis, CTCAE Grade (patient JP007A-0002, 60 mg BID Arm B, Not related, Recovered/Resolved): 4 | SAE Pneumonia, CTCAE Grade (patient JP028A-0001, 40 mg BID Arm B, Not related, Fatal): 5 | SAE Pneumonia, CTCAE Grade (patient JP028A-0001, 40 mg BID Arm B, Not related, Recovered/Resolved (one continuous event with the Grade 5)): 4 | SAE Haemorrhage intracranial, CTCAE Grade (patient US053A-0001, 80 mg BID Arm A, Not related, Fatal): 5 | SAE Atrial fibrillation, CTCAE Grade [2]: 3 | SAE Pneumonia, CTCAE Grade [2]: 3 | SAE Respiratory failure, CTCAE Grade [2]: 4 | SAE Differentiation syndrome, CTCAE Grade (patient US053A-0001, 80 mg BID Arm A, Drug interrupted, Recovered/Resolved): 4 | SAE Differentiation syndrome, CTCAE Grade (patient US053A-0001, 80 mg BID Arm A, action Not applicable, Recovered/Resolved): 3 | SAE Pneumonia, CTCAE Grade (patient US053A-0002, 40 mg BID Arm B, Not related, Recovered/Resolved): 3 | SAE Disease progression, CTCAE Grade (patient US154A-0001, 80 mg BID Arm A, Not related, Fatal): 5 | SAE Disease progression, CTCAE Grade (patient US154A-0002, 40 mg BID Arm B, Not related, Fatal): 5 | SAE Bone pain, CTCAE Grade [3]: 3 | SAE Malaise, CTCAE Grade [3]: 3 | SAE Pyrexia, CTCAE Grade [4]: 1 | SAE Respiratory failure, CTCAE Grade [4]: 2 | SAE Leukocytosis, CTCAE Grade (patient US154A-0004, 100 mg BID Arm A, Not related, Recovering/Resolving): 4 | SAE Leukocytosis, CTCAE Grade (patient US158A-0002, 120 mg BID Arm A, Not related, Recovered/Resolved): 1 | SAE Acute myeloid leukaemia, CTCAE Grade (patient US185A-0001, 100 mg BID Arm A, Not related, Fatal): 5 | SAE Cerebrovascular accident, CTCAE Grade [5]: 4 | SAE Haemorrhage intracranial, CTCAE Grade [5]: 2 | SAE Electrocardiogram QT prolonged, CTCAE Grade (patient US185A-0001, 100 mg BID Arm A, Not related, Recovered/Resolved, hypomagnesaemia at the time): 3 | SAE Febrile neutropenia, CTCAE Grade (patient US185A-0002, 40 mg BID Arm B, Not related, Recovered/Resolved): 3 | SAE Sepsis, CTCAE Grade (patient US185A-0002, 40 mg BID Arm B, Not related, Recovering/Resolving): 3 | SAE Lung infection (pneumonia), CTCAE Grade [6]: 5 | SAE Multiple organ dys function syndrome, CTCAE Grade [6]: 5 | SAE Sepsis, CTCAE Grade [6]: 5 | SAE Pneumonia fungal, CTCAE Grade (patient US210A-0001, 80 mg BID Arm A, Not related, Fatal): 5 | SAE Rectal haemorrhage, CTCAE Grade (patient US210A-0001, 80 mg BID Arm A, Not related, Recovered/Resolved): 4 | SAE Cellulitis, CTCAE Grade (patient US210A-0002, 120 mg BID Arm A, Not related, Recovered/Resolved): 3 | safety profile between Arm A and Arm B (without vs with azole antifungals): not different
